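Grown in 96-well plates, cells were treated for 48 hours with each compound at five concentrations. Insufficient inhibition: endpoint recorded as highest concentration tested. Here, GI50 denotes the concentration required for 50% inhibition of growth. The concentration for full growth arrest is given as TGI.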

The subject of the first assay is MDA-N. The experiment in a line: NCI tumour cell line growth inhibition, 48 h.
Regarding `O=[N+]([O-])c1ccc(C=Cc2ccccc2)cc1.[C-]#[O+].[C-]#[O+].[C-]#[O+].[Cr]`, the GI50 is 7.25 µM and the TGI is greater than 100 µM.
`NNC(=O)CS(=O)(=O)Nc1ncccn1` displayed a TGI greater than 100 µM.
As for `COC1C=COC2(C)Oc3c(C)c(O)c4c(c3C2=O)/C(=N/C2CCC(O)OC2C)C=C(NC(=O)/C(C)=C\C(=O)C2CC2C(O)C(C)C(O)C(C)C(OC(C)=O)C1C)C4=O` (stereo unspecified), the TGI was found to be 3.83 µM.
Consider `NC(CSC1c2ccccc2-c2ccccc21)C(=O)O` (stereo unspecified), for which the TGI was greater than 100 µM.
Compound `COc1cc2c(cc1C1COc3cc4occc4cc3C1=O)OCO2` (stereo unspecified) had a TGI greater than 100 µM.
With `O=C(O)CN1CCN(CC(=O)O)CC(=O)[O][Hg][O]C(=O)C1`, the GI50 was 16.7 µM and the TGI was determined as 31.7 µM.
The compound `O=C(O)c1ccc(C(=O)c2ccccc2)c(C(=O)O)c1` registered a TGI greater than 100 µM.

Another assay has as its system P388 leukemia. The experiment in a line: NCI tumour cell line growth inhibition, 48 h.
Compound `NC(=O)c1csc(C2OC(CO)C(O)C2O)n1` (stereo unspecified) gave a TGI of 159 µM.

A further assay has as its system P388/ADR leukemia. The experiment in a line: NCI tumour cell line growth inhibition, 48 h.
As to `NC(=O)c1csc(C2OC(CO)C(O)C2O)n1` (stereo unspecified), the TGI came to 84.1 µM.

Another assay deals with RXF-631 renal. Nature of the assay: NCI tumour cell line growth inhibition, 48 h.
In the case of `CCC(=O)C12OC3OC(C)(C)OC3C1OC(C)(C)O2` (stereo unspecified), the TGI was greater than 100 µM.
Same read-out and setting: to `Cc1cccc(C)c1NC(=O)/C(=N/NC(N)=S)C(C)C(=O)c1ccc(Cl)cc1` (stereo unspecified) belongs greater than 100 µM; to `Nc1nc(OCc2ccccc2)c2[nH]cnc2n1`, 309 µM; to `Fc1ccc(C2SCc3nc4ccccc4n32)c(F)c1` (stereo unspecified), greater than 100 µM.
In turn, `COc1cc(C(=O)C/C(CCC(=O)Nc2ccccc2[N+](=O)[O-])=N\NC(N)=O)ccc1O` yielded a TGI greater than 100 µM.
On the same count and under the same terms, to `CCN(CC)CC1c2ccccc2C(CNc2ccccc2)N1C` (stereo unspecified) belongs greater than 100 µM; to `CC(=O)Nc1ccc(SC#N)c2c(NC(C)=O)cccc12`, greater than 100 µM.
The compound `COc1ccc(C=O)c([N+](=O)[O-])c1` displayed a TGI greater than 100 µM.
Consider `CCOC(=O)C1C(=S)NC(=O)C1C#N` (stereo unspecified), for which the TGI is greater than 100 µM.
The compound `COC(=O)C1(C)CCc2c(OC)ccc(OC)c2C1=O` (stereo unspecified) showed a TGI greater than 100 µM.
In turn, `CC#CCC1CCC(OCC)=CC1=O` (stereo unspecified) came in with a TGI greater than 100 µM.
In turn, `O=C1CC(c2c[nH]c3ccccc23)C(=O)N1` (stereo unspecified) yielded a TGI greater than 100 µM.
Turning to `O=C(NC1CCCCC1)NS(=O)(=O)c1ccc2c(c1)CCC2`, the TGI is greater than 100 µM.

The subject of another assay is SN12K1 renal. Nature of the assay: NCI tumour cell line growth inhibition, 48 h.
In the case of `NC(=O)c1csc(C2OC(CO)C(O)C2O)n1` (stereo unspecified), the TGI is greater than 9.22 mM.

A further assay relates to SNB-78 CNS. Nature of the assay: NCI tumour cell line growth inhibition, 48 h.
In turn, `CCC(=O)C12OC3OC(C)(C)OC3C1OC(C)(C)O2` (stereo unspecified) came in with a TGI greater than 100 µM.
For `CC/C=C\C/C=C\C/C=C\CCCCCCCC(=O)OCC(O)CO` (stereo unspecified), the TGI was greater than 73.8 µM.
Still for that read-out and setting: to `Cc1cccc(C)c1NC(=O)/C(=N/NC(N)=S)C(C)C(=O)c1ccc(Cl)cc1` (stereo unspecified) belongs greater than 100 µM; to `N#CC(C#N)=C1NC(=O)CC(=O)N1`, greater than 100 µM.
On to `Nc1nc(OCc2ccccc2)c2[nH]cnc2n1`, for which the TGI came to 400 µM.
The same measure, in the same setting: to `Fc1ccc(C2SCc3nc4ccccc4n32)c(F)c1` (stereo unspecified) belongs greater than 100 µM; to `NC(=O)c1csc(C2OC(CO)C(O)C2O)n1` (stereo unspecified), greater than 9480 µM.
In turn, `COc1cc(C(=O)C/C(CCC(=O)Nc2ccccc2[N+](=O)[O-])=N\NC(N)=O)ccc1O` returned a TGI greater than 100 µM.
For `CCN(CC)CC1c2ccccc2C(CNc2ccccc2)N1C` (stereo unspecified), the TGI is greater than 100 µM.
Compound `CC1(O)C=CC(=O)C=C1` registered a TGI of 97.2 µM.
On the same count and under the same terms, to `COc1ccc(-c2cc(Cc3cccs3)c(=O)[nH]n2)cc1` belongs greater than 100 µM; to `CC(=O)Nc1ccc(SC#N)c2c(NC(C)=O)cccc12`, greater than 100 µM.
In turn, `Cc1ccc(-c2nnc(-c3nn(-c4ccccc4)c4nc5ccccc5nc34)o2)cc1` displayed a TGI greater than 100 µM.
`Cc1ccc2c(C3Cc4ccccc4N3C(=O)/C=C\C(=O)O)c(C)[nH]c2c1` (stereo unspecified) returned a TGI of 45.3 µM.
`COc1ccc(C=O)c([N+](=O)[O-])c1` had a TGI greater than 100 µM.
The compound `COC(=O)C1(C)CCc2c(OC)ccc(OC)c2C1=O` (stereo unspecified) yielded a TGI greater than 100 µM.
`COC(=O)C1CC2CC(=NNC(N)=O)CC2C1` (stereo unspecified) registered a TGI greater than 100 µM.
As for `CC#CCC1CCC(OCC)=CC1=O` (stereo unspecified), the TGI was greater than 100 µM.
Same read-out and setting: to `O=C1CC(c2c[nH]c3ccccc23)C(=O)N1` (stereo unspecified) belongs greater than 100 µM.
Take `COc1cc2c(c(OC)c1OC)-c1ccc(SC)c(=O)cc1C(NC(=O)c1ccccc1)CC2` (stereo unspecified): the TGI was greater than 90.9 µM.
For `Cc1c(/C=N/N=C/c2[nH]c(C(=O)OC(C)(C)C)c(C)c2C)[nH]c(C(=O)OC(C)(C)C)c1C`, the TGI is greater than 100 µM.

The next assay deals with XF 498 CNS. Nature of the assay: NCI tumour cell line growth inhibition, 48 h.
Turning to `CCC(=O)C12OC3OC(C)(C)OC3C1OC(C)(C)O2` (stereo unspecified), the TGI was greater than 100 µM.
The same measure, in the same setting: to `CC/C=C\C/C=C\C/C=C\CCCCCCCC(=O)OCC(O)CO` (stereo unspecified) belongs greater than 100 µM; to `Cc1cccc(C)c1NC(=O)/C(=N/NC(N)=S)C(C)C(=O)c1ccc(Cl)cc1` (stereo unspecified), greater than 100 µM; to `N#CC(C#N)=C1NC(=O)CC(=O)N1`, greater than 100 µM.
As for `NC(=O)c1csc(C2OC(CO)C(O)C2O)n1` (stereo unspecified), the TGI worked out at 732 µM.
Take `COc1cc(C(=O)C/C(CCC(=O)Nc2ccccc2[N+](=O)[O-])=N\NC(N)=O)ccc1O`: the TGI is greater than 100 µM.
Compound `CCN(CC)CC1c2ccccc2C(CNc2ccccc2)N1C` (stereo unspecified) returned a TGI greater than 100 µM.
Consider `CC1(O)C=CC(=O)C=C1`, for which the TGI is greater than 65.1 µM.
Turning to `Cc1ccc(-c2nnc(-c3nn(-c4ccccc4)c4nc5ccccc5nc34)o2)cc1`, the TGI amounted to 25.4 µM.
`COc1ccc(C=O)c([N+](=O)[O-])c1` came in with a TGI greater than 100 µM.
Take `COC(=O)C1(C)CCc2c(OC)ccc(OC)c2C1=O` (stereo unspecified): the TGI is greater than 100 µM.
`COC(=O)C1CC2CC(=NNC(N)=O)CC2C1` (stereo unspecified) had a TGI greater than 100 µM.
In the case of `CC#CCC1CCC(OCC)=CC1=O` (stereo unspecified), the TGI was greater than 100 µM.
Consider `O=C1CC(c2c[nH]c3ccccc23)C(=O)N1` (stereo unspecified), for which the TGI is greater than 100 µM.
Consider `O=C(NC1CCCCC1)NS(=O)(=O)c1ccc2c(c1)CCC2`, for which the TGI was greater than 100 µM.

For the origin of these results see PubChem BioAssay (NCI).
